Experimental data reported in ChEMBL document CHEMBL5528048, “Discovery of Novel Potent and Fast BTK PROTACs for the Treatment of Osteoclasts-Related Inflammatory Diseases” (J Med Chem, 2024).
Activity calls are given as the source filed them. The calls are words filed in the database; no cut-off is given here.

Key:
[1] = biological target: T1, Protein cereblon/Tyrosine-protein kinase BTK (Homo sapiens, UniProt Q06187+Q96SW2); experiment: PROTAC activity at BTK/CRBN in human MINO cells assessed as BTK protein degradation at 20 nM by Western blotting analysis; assay type: cell-based; conditions: time lower 2.0 hrs, time upper […], TDE = time-dependent effect
Target sequence in this assay (Q06187 2-659 limits assumed): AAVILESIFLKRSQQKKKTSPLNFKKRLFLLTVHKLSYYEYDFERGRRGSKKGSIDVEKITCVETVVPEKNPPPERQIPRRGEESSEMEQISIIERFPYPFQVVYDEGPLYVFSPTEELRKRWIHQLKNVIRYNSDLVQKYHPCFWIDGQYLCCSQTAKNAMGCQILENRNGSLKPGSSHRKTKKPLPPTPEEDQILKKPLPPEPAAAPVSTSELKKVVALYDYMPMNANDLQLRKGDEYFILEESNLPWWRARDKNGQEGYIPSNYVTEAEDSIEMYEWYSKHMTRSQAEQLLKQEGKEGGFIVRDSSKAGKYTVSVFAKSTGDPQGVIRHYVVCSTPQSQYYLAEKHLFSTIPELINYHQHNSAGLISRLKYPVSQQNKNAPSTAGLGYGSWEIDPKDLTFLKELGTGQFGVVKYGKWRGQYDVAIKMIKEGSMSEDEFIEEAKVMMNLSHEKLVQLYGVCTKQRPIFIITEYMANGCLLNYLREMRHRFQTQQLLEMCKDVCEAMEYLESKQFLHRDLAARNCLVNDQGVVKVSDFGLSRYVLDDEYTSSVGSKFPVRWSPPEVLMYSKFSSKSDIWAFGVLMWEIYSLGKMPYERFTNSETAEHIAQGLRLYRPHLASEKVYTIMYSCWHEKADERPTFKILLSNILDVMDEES
Target sequence in this assay (Q96SW2 whole entry partner): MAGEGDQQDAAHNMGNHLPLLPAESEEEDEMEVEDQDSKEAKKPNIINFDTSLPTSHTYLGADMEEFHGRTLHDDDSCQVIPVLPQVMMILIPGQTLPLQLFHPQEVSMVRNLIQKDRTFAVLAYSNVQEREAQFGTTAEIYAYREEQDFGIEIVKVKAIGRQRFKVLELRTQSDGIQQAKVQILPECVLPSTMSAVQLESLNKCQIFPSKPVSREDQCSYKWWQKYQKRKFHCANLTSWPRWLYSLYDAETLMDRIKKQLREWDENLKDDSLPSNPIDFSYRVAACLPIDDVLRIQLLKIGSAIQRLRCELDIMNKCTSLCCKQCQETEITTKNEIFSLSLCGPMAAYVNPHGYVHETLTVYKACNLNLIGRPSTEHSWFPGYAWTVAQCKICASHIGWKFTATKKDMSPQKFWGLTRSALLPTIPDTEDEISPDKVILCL

[2] = biological target: T1, Protein cereblon/Tyrosine-protein kinase BTK; experiment: PROTAC activity at BTK/CRBN in human MINO cells assessed as BTK protein degradation at 20 nM measured after 24 hrs by Western blotting analysis relative to control; assay type: cell-based
Target sequence in this assay (Q06187 2-659 limits assumed): as the sequence (Q06187 2-659 limits assumed) above
Target sequence in this assay (Q96SW2 whole entry partner): as the sequence (Q96SW2 whole entry partner) above

[3] = biological target: T1, Protein cereblon/Tyrosine-protein kinase BTK; experiment: PROTAC activity at BTK/CRBN in human MINO cells assessed as BTK protein degradation at 100 nM measured after 24 hrs by Western blotting analysis relative to control; assay type: cell-based
Target sequence in this assay (Q06187 2-659 limits assumed): as the sequence (Q06187 2-659 limits assumed) above
Target sequence in this assay (Q96SW2 whole entry partner): as the sequence (Q96SW2 whole entry partner) above

[4] = biological target: T1, Protein cereblon/Tyrosine-protein kinase BTK; experiment: PROTAC activity at BTK/CRBN in human MINO cells assessed as BTK protein degradation at 20 nM measured after 4 to 8 hrs by Western blotting analysis; assay type: cell-based; conditions: time 4-8 hrs
Target sequence in this assay (Q06187 2-659 limits assumed): as the sequence (Q06187 2-659 limits assumed) above
Target sequence in this assay (Q96SW2 whole entry partner): as the sequence (Q96SW2 whole entry partner) above

[5] = biological target: T1, Protein cereblon/Tyrosine-protein kinase BTK; experiment: PROTAC activity at BTK/CRBN in human MINO cells assessed as BTK protein degradation by measuring onset time activity at 20 nM by Western blotting analysis; assay type: cell-based
Target sequence in this assay (Q06187 2-659 limits assumed): as the sequence (Q06187 2-659 limits assumed) above
Target sequence in this assay (Q96SW2 whole entry partner): as the sequence (Q96SW2 whole entry partner) above

[6] = biological target: T1, Protein cereblon/Tyrosine-protein kinase BTK; experiment: PROTAC activity at BTK/CRBN in human MINO cells assessed as BTK protein degradation half life at 20 nM by Western blotting analysis; assay type: cell-based
Target sequence in this assay (Q06187 2-659 limits assumed): as the sequence (Q06187 2-659 limits assumed) above
Target sequence in this assay (Q96SW2 whole entry partner): as the sequence (Q96SW2 whole entry partner) above

[7] = biological target: T1, Protein cereblon/Tyrosine-protein kinase BTK; experiment: PROTAC activity at BTK/CRBN in human MINO cells assessed as BTK protein degradation measured for 4 hrs by Western blotting analysis; assay type: cell-based
Target sequence in this assay (Q06187 whole entry): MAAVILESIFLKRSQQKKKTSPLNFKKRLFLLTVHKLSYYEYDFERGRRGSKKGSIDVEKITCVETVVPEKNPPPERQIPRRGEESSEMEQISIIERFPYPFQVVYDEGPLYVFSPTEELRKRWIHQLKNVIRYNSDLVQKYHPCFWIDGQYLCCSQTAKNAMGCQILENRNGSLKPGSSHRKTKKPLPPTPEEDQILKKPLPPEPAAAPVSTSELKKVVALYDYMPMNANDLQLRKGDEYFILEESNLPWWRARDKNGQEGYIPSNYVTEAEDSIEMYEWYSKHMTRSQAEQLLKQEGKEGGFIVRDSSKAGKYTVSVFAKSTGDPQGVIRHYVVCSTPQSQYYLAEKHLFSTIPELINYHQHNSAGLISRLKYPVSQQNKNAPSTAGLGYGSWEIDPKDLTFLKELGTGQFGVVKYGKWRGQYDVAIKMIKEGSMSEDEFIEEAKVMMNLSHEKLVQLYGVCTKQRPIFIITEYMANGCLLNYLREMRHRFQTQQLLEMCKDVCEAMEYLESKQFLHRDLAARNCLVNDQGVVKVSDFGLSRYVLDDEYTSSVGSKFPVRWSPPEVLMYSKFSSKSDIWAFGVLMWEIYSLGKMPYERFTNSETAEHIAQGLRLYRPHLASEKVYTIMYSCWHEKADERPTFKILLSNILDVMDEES
Target sequence in this assay (Q96SW2 whole entry): as the sequence (Q96SW2 whole entry partner) above

[8] = AUC (0 to t) in Sprague-Dawley rat at 4 mg/kg, ip measured upto 48 hrs; assay type: ADME, organism-based; conditions: in vivo
[9] = AUC (0 to infinity) in Sprague-Dawley rat at 4 mg/kg, ip measured upto 48 hrs; assay type: ADME, organism-based; conditions: in vivo
[10] = Cmax in Sprague-Dawley rat at 4 mg/kg, ip measured upto 48 hrs; assay type: ADME, organism-based; conditions: in vivo
[11] = biological target: T1, Protein cereblon/Tyrosine-protein kinase BTK; experiment: PROTAC activity at BTK/CRBN in human MINO cells assessed as BTK protein degradation at 20 nM measured after 48 hrs by Western blotting analysis; assay type: cell-based
[12] = biological target: T1, Protein cereblon/Tyrosine-protein kinase BTK; experiment: PROTAC activity at BTK/CRBN in human MINO cells assessed as BTK protein degradation measured for 24 hrs by Western blotting analysis; assay type: cell-based
Target sequence in this assay (Q06187 whole entry): as the sequence (Q06187 whole entry) above
Target sequence in this assay (Q96SW2 whole entry): as the sequence (Q96SW2 whole entry partner) above

[13] = biological target: T2, Tyrosine-protein kinase BTK (Homo sapiens, UniProt Q06187); experiment: Binding affinity to BTK (unknown origin) assessed as inhibition constant measured after 60 mins incubation by microtiter-plate reader
[14] = biological target: T1, Protein cereblon/Tyrosine-protein kinase BTK; experiment: Binding affinity to BTK/CRBN (unknown origin) assessed as ternary complex formation by measuring peak HTRF ratio at wavelength 665/620 nm measured after 60 mins incubation by HTRF assay
Protein cereblon = Protein cereblon (Homo sapiens, UniProt Q96SW2); experiment: Inhibition of CRBN (unknown origin) measured after 60 mins incubation by BMG reader
[15] = biological target: T1, Protein cereblon/Tyrosine-protein kinase BTK; experiment: Binding affinity to BTK/CRBN (unknown origin) assessed as ternary complex formation measured after 60 mins incubation by HTRF assay
Target sequence in this assay (Q06187 whole entry): as the sequence (Q06187 whole entry) above
Target sequence in this assay (Q96SW2 whole entry): as the sequence (Q96SW2 whole entry partner) above

[16] = biological target: T2, Tyrosine-protein kinase BTK; experiment: Inhibition of BTK (unknown origin) measured after 60 mins incubation by microtiter-plate reader
[17] = biological target: T1, Protein cereblon/Tyrosine-protein kinase BTK; experiment: Binding affinity to BTK/CRBN (unknown origin) assessed as ternary complex formation by measuring peak concentration measured after 60 mins incubation by HTRF assay

T2 sequence (Q06187 whole entry): as the sequence (Q06187 whole entry) above
Protein cereblon, sequence (Q96SW2 whole entry): as the sequence (Q96SW2 whole entry partner) above

| Activity [2] [%] | Activity [3] [%] | SMILES | also measured |
| --- | --- | --- | --- |
| 99 | 21 | Cc1cc(-c2nc(Nc3ccn(C4CCN(CC5CCN(c6ccc7c(c6)C(=O)N(C6CCC(=O)NC6=O)C7=O)CC5)CC4)n3)ncc2F)ccc1CNC(=O)c1cn(C2CC2)nn1 (centres undefined) | Activity [1]: Tde |
| 75 | 95 | Cc1cc(-c2nc(Nc3ccn(C4CN(CC5CCN(c6ccc7c(c6)C(=O)N(C6CCC(=O)NC6=O)C7=O)CC5)C4)n3)ncc2F)ccc1CNC(=O)c1cnc(C(C)(C)C)s1 (centres undefined) |  |
|  | 32 | Cc1cc(-c2nc(Nc3cnn(C4CCN(C(=O)CCC(=O)N[C@@H](C)C(=O)N[C@H]5CCC(=O)NC5=O)CC4)c3)ncc2F)ccc1CNC(=O)c1cn(C(C)(C)C)nn1 |  |
|  | < 10 | O=C1CCC(N2C(=O)c3ccc(N4CC(CN5CCN(c6ccc(Nc7ncc(F)c(N8CCC[C@@H](N9CCOC9=O)C8)n7)cc6)CC5)C4)cc3C2=O)C(=O)N1 (some centres undefined) |  |
| 0 | 16 | Cc1cc(-c2nc(Nc3ccn(C4CCN(CC5CCN(c6ccc7c(c6)C(=O)N(C6CCC(=O)NC6=O)C7=O)CC5)CC4)n3)ncc2F)ccc1CNC(=O)c1cnc(C(C)(C)C)s1 (centres undefined) |  |
|  | < 10 | O=C1CCC(N2C(=O)c3ccc(N4CC(CN5CCN(c6ccc(Nc7ncc(F)c(N8CCC(CO)CC8)n7)cc6)CC5)C4)cc3C2=O)C(=O)N1 (centres undefined) |  |
|  | 25 | O=C1CCC(N2C(=O)c3ccc(N4CCC(CN5CCN(c6ccc(Nc7ncc(F)c(N8CCC(CO)CC8)n7)cc6)CC5)CC4)cc3C2=O)C(=O)N1 (centres undefined) |  |
| 99 | 99 | Cc1cc(-c2nc(Nc3cnn(C4CN(CC5CCN(c6ccc7c(c6)C(=O)N(C6CCC(=O)NC6=O)C7=O)CC5)C4)c3)ncc2F)ccc1CNC(=O)c1cn(C(C)(C)C)nn1 (centres undefined) | Activity [1]: Tde; Activity [4]: Active; TIME [5]: < 0.5 h; T1/2 [6]: 0.71 h; DC50 [7]: 2.49 nM |
|  | 70 | CC#CC(=O)Nc1cccc(Nc2nc(Nc3ccc(N4CCN(C5CN(c6ccc7c(c6)C(=O)N(C6CCC(=O)NC6=O)C7=O)C5)CC4)cc3)ncc2F)c1 (centres undefined) |  |
|  | 11 | Cn1cc(Nc2nc(Nc3ccc(N4CCN(CC5CN(c6ccc7c(c6)C(=O)N(C6CCC(=O)NC6=O)C7=O)C5)CC4)cc3)ncc2F)cn1 (centres undefined) |  |
| 0 | 63 | Cc1cc(-c2nc(Nc3ccn(C4CCN(CC5CCN(c6ccc7c(c6)C(=O)N(C6CCC(=O)NC6=O)C7=O)CC5)CC4)n3)ncc2F)ccc1CNC(=O)c1noc(C2CC2)n1 (centres undefined) |  |
|  | < 10 | O=C1CCC(N2C(=O)c3ccc(N4CCC(N5CCN(c6ccc(Nc7ncc(F)c(N8CCC(CO)CC8)n7)cc6)CC5)CC4)cc3C2=O)C(=O)N1 (centres undefined) |  |
|  |  | C=CC(=O)N1CCC[C@@H](n2nc(-c3ccc(Oc4ccccc4)cc3)c3c(N)ncnc32)C1 [IBRUTINIB] | AUC(0-t) at 48 h [8]: 11200 ng·h/mL; AUC(0-inf) [9]: 11700 ng·h/mL; Cmax [10]: 3460 ng/mL |
| 92 | 97 | Cc1cc(-c2nc(Nc3ccn(C4CN(CC5CCN(c6ccc7c(c6)C(=O)N(C6CCC(=O)NC6=O)C7=O)CC5)C4)n3)ncc2F)ccc1CNC(=O)c1cn(C2CC2)nn1 (centres undefined) |  |
| 80 | 95 | Cc1cc(-c2nc(Nc3cnn(C4CCN(CC5CCN(c6ccc7c(c6)C(=O)N(C6CCC(=O)NC6=O)C7=O)CC5)CC4)c3)ncc2F)ccc1CNC(=O)N1CC(OC(C)C)C1 (centres undefined) |  |
|  | < 10 | C=CC(=O)Nc1cccc(Nc2nc(Nc3ccc(N4CCN(C5CN(c6ccc7c(c6)C(=O)N(C6CCC(=O)NC6=O)C7=O)C5)CC4)cc3)ncc2F)c1 (centres undefined) |  |
|  | 28 | C=CC(=O)Nc1cccc(Nc2nc(Nc3ccc(N4CCN(CC5CCN(c6ccc7c(c6)C(=O)N(C6CCC(=O)NC6=O)C7=O)CC5)CC4)cc3)ncc2F)c1 (centres undefined) |  |
|  | 20 | O=C1CCC(N2C(=O)c3ccc(N4CC(CN5CCC(C#Cc6ccc(Nc7ncc(F)c(N8CCC(CO)CC8)n7)cn6)CC5)C4)cc3C2=O)C(=O)N1 (centres undefined) |  |
|  | 30 | CN1CCN([C@@H]2CCCN(c3nc(Nc4ccc(N5CCN(CC6CCN(c7ccc8c(c7)C(=O)N(C7CCC(=O)NC7=O)C8=O)CC6)CC5)cc4)ncc3F)C2)C1=O (some centres undefined) |  |

| Activity [2] [%] | Activity [3] [%] | SMILES | also measured |
| --- | --- | --- | --- |
|  | < 10 | O=C1CCC(N2C(=O)c3ccc(N4CC(CN5CCN(c6ccc(Nc7ncc(F)c(N8CCC(CO)CC8)n7)cn6)CC5)C4)cc3C2=O)C(=O)N1 (centres undefined) |  |
| 0 | 29 | Cc1cc(-c2nc(Nc3cnn(C4CN(CC5CCN(c6ccc7c(c6)C(=O)N(C6CCC(=O)NC6=O)C7=O)CC5)C4)c3)ncc2F)ccc1CNC(=O)c1ccc(C(C)(C)C)cc1 (centres undefined) |  |
| 95 | 99 | Nc1ncnc2c1c(-c1ccc(Oc3ccccc3)cc1)nn2C1CCN(C(=O)CN2CCN(CC3CN(c4ccc5c(c4)C(=O)N(C4CCC(=O)NC4=O)C5=O)C3)CC2)CC1 (centres undefined) | Activity [11]: Active; Activity [1]: Tde; DC50 [12]: 7.07 nM; TIME [5]: < 1 h; Ki [13]: 50.3 nM; Ratio [14]: 13.1; IC50 (Protein cereblon): 285 nM; T1/2 [6]: 1.51 h; EC50 [15]: 2.74 nM; DC50 [7]: 18.9 nM; IC50 [16]: 95.5 nM; Activity [17]: 37 nM |
|  | < 10 | O=C1CCC(N2C(=O)c3ccc(N4CC(CN5CCN(c6ccc(Nc7ncc(F)c(-n8cccn8)n7)cc6)CC5)C4)cc3C2=O)C(=O)N1 (centres undefined) |  |
|  | 39 | O=C1CCC(N2C(=O)c3ccc(N4CCC(CN5CCN(c6ccc(Nc7ncc(F)c(N8CCC[C@@H](N9CCOC9=O)C8)n7)cc6)CC5)CC4)cc3C2=O)C(=O)N1 (some centres undefined) |  |
| 78 | 99 | Cc1cc(-c2nc(Nc3ccn(C4CN(CC5CCN(c6ccc7c(c6)C(=O)N(C6CCC(=O)NC6=O)C7=O)CC5)C4)n3)ncc2F)ccc1CNC(=O)c1noc(C(C)(C)C)n1 (centres undefined) |  |
| 98 | 99 | Cc1cc(-c2nc(Nc3ccn(C4CCN(CC5CCN(c6ccc7c(c6)C(=O)N(C6CCC(=O)NC6=O)C7=O)CC5)CC4)n3)ncc2F)ccc1CNC(=O)c1noc(C(C)(C)C)n1 (centres undefined) | Activity [1]: Tde; Activity [4]: Active; T1/2 [6]: 1.1 h; DC50 [7]: 10.3 nM |
|  | 20 | O=C1CCC(N2C(=O)c3ccc(N4CCC(CN5CCN(c6ccc(Nc7ncc(F)c(N8CCC(CO)CC8)n7)cn6)CC5)CC4)cc3C2=O)C(=O)N1 (centres undefined) |  |
|  | 48 | Cc1cc(-c2nc(Nc3cnn(C4CCN(CC5CCN(c6ncc(-c7ccc(=O)[nH]n7)cc6F)CC5)CC4)c3)ncc2F)ccc1CNC(=O)c1cn(C(C)(C)C)nn1 |  |
| 96 | 99 | Cc1cc(-c2nc(Nc3ccn(C4CN(CC5CCN(c6ccc7c(c6)C(=O)N(C6CCC(=O)NC6=O)C7=O)CC5)C4)n3)ncc2F)ccc1CNC(=O)c1nc(C(C)(C)C)no1 (centres undefined) |  |
|  | 35 | O=C1CCC(N2C(=O)c3ccc(N4CCC(CN5CCC(C#Cc6ccc(Nc7ncc(F)c(N8CCC(CO)CC8)n7)cn6)CC5)CC4)cc3C2=O)C(=O)N1 (centres undefined) |  |
| 0 | 49 | Cc1cc(-c2nc(Nc3cnn(C4CCN(CC5CCN(c6ccc7c(c6)C(=O)N(C6CCC(=O)NC6=O)C7=O)CC5)CC4)c3)ncc2F)ccc1CNC(=O)c1ccc(C(C)(C)C)cc1 (centres undefined) |  |
|  | < 10 | CN1CCN([C@@H]2CCCN(c3nc(Nc4ccc(N5CCN(CC6CN(c7ccc8c(c7)C(=O)N(C7CCC(=O)NC7=O)C8=O)C6)CC5)cc4)ncc3F)C2)C1=O (some centres undefined) |  |
| 99 | 99 | Cc1cc(-c2nc(Nc3ccn(C4CCN(CC5CCN(c6ccc7c(c6)C(=O)N(C6CCC(=O)NC6=O)C7=O)CC5)CC4)n3)ncc2F)ccc1CNC(=O)c1nc(C(C)(C)C)no1 (centres undefined) |  |
|  | 54 | C#CC(=O)Nc1cccc(Nc2nc(Nc3ccc(N4CCN(C5CN(c6ccc7c(c6)C(=O)N(C6CCC(=O)NC6=O)C7=O)C5)CC4)cc3)ncc2F)c1 (centres undefined) |  |
|  | 26 | O=C(/C=C/C(F)(F)F)Nc1cccc(Nc2nc(Nc3ccc(N4CCN(C5CN(c6ccc7c(c6)C(=O)N(C6CCC(=O)NC6=O)C7=O)C5)CC4)cc3)ncc2F)c1 (centres undefined) |  |
| 96 | 99 | NC(=O)c1ncc(N2CCCCC2)nc1Nc1ccc(C2CCN(C[C@@H]3CCN(c4ccc5c(c4)C(=O)N(C4CCC(=O)NC4=O)C5=O)C3)CC2)cc1 (some centres undefined) | TIME [5]: < 1 h; T1/2 [6]: 1.25 h; DC50 [7]: 4.86 nM |
|  | 57 | Cc1cc(-c2nc(Nc3cnn(C4CCN(CC5CCN(c6ccc(C7CCC(=O)NC7=O)cc6F)CC5)CC4)c3)ncc2F)ccc1CNC(=O)c1cn(C(C)(C)C)nn1 (centres undefined) |  |
